Assay results taken from PubChem BioAssay AID330 (DTP/NCI, 2004).
“And” between values parts separate entries of the source, which are not always exact repeats. Equal values may be shown once. Toxic doses and inconclusive results are not listed.

Tested on: P388 leukemia ip, CD2F1 mice, survival T/C
Test: NCI In Vivo Anticancer Drug Screen. Data for tumor model P388 Leukemia (intraperitoneal) in CD2F1 (CDF1) mice
Conditions: endpoint: median survival time, higher = longer survival
How it was run: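 Mice carrying the transplanted tumor received test compound or vehicle. Survival was recorded in each group, and the value is the treated-group measurement divided by that of the vehicle-treated control group.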

[1] = dose: 50.0 mg/kg/injection, schedule: Q01DX009 (ip), vehicle: saline
[2] = dose: 100.0 mg/kg/injection, schedule: Q01DX009 (ip), vehicle: saline
[3] = dose: 200.0 mg/kg/injection, schedule: Q01DX009 (ip), vehicle: saline
[4] = dose: 100.0 mg/kg/injection, schedule: Q04DX003 (ip), vehicle: Klucel (hydroxypropylcellulose) (HPC)
[5] = dose: 200.0 mg/kg/injection, schedule: Q04DX003 (ip), vehicle: Klucel (hydroxypropylcellulose) (HPC)
[6] = dose: 400.0 mg/kg/injection, schedule: Q04DX003 (ip), vehicle: Klucel (hydroxypropylcellulose) (HPC)
[7] = dose: 100.0 mg/kg/injection, schedule: Q01DX001 (ip), vehicle: Klucel (hydroxypropylcellulose) (HPC)
[8] = dose: 50.0 mg/kg/injection, schedule: Q01DX005 (ip), vehicle: saline
[9] = dose: 100.0 mg/kg/injection, schedule: Q01DX005 (ip), vehicle: saline
[10] = dose: 50.0 mg/kg/injection, schedule: Q01DX009 (ip), vehicle: saline with Tween-80
[11] = dose: 100.0 mg/kg/injection, schedule: Q01DX009 (ip), vehicle: saline with Tween-80
[12] = dose: 50.0 mg/kg/injection, schedule: Q01DX005 (ip), vehicle: saline with Tween-80
[13] = dose: 100.0 mg/kg/injection, schedule: Q01DX005 (ip), vehicle: saline with Tween-80
[14] = dose: 50.0 mg/kg/injection, schedule: Q01DX009 (ip), vehicle: Klucel (hydroxypropylcellulose) (HPC)
[15] = dose: 100.0 mg/kg/injection, schedule: Q01DX009 (ip), vehicle: Klucel (hydroxypropylcellulose) (HPC)
[16] = dose: 200.0 mg/kg/injection, schedule: Q01DX009 (ip), vehicle: Klucel (hydroxypropylcellulose) (HPC)

## O=C(O)/C=C/c1ccc(O)c(O)c1
[1]
  T/C: 101 % of control and 103 % of control
[2]
  T/C: 101 % of control and 118 % of control
[3]
  T/C: 102 % of control and 107 % of control
dose: 400.0 mg/kg/injection, schedule: Q01DX009 (ip), vehicle: saline
  T/C: 100 % of control and 103 % of control
dose: 600.0 mg/kg/injection, schedule: Q01DX009 (ip), vehicle: saline
  T/C: 116 % of control

## O=C(O)c1ccc(N2C(=O)CC3(CCCCC3)C2=O)cc1O
[4]
  T/C: 101 % of control
[5]
  T/C: 102 % of control
[6]
  T/C: 88 % of control

## BrC1C(c2ccccc2)=NOC12CN=C(c1ccccc1)O2 (stereo not given)
[7]
  T/C: 101 % of control
dose: 200.0 mg/kg/injection, schedule: Q01DX001 (ip), vehicle: Klucel (hydroxypropylcellulose) (HPC)
  T/C: 99 % of control
dose: 400.0 mg/kg/injection, schedule: Q01DX001 (ip), vehicle: Klucel (hydroxypropylcellulose) (HPC)
  T/C: 96 % of control

## CCOC(=O)CCCn1nc(-c2ccc(Cl)cc2)c(-c2ccc(Cl)cc2)c(C#N)c1=O
dose: 100.0 mg/kg/injection, schedule: Q04DX002 (ip), vehicle: saline with Tween-80
  T/C: 123 % of control

## COc1c(OC2OC(CO)C(O)C(O)C2O)cc2c(c1OC)-c1ccc(OC)c(=O)cc1C(NC(C)=O)CC2 (stereo not given)
dose: 12.5 mg/kg/injection, schedule: Q01DX005 (ip), vehicle: saline
  T/C: 108 % of control
dose: 25.0 mg/kg/injection, schedule: Q01DX005 (ip), vehicle: saline
  T/C: 106 % of control
[8]
  T/C: 117 % of control and 121 % of control

## O=C(O)c1ccc[c]([Sb]2(=[O])[O]C(CO)C(C(O)C(O)C(=O)O)[O]2)c1 (stereo not given)
[8]
  T/C: 100 % of control
[9]
  T/C: 100 % of control
dose: 200.0 mg/kg/injection, schedule: Q01DX005 (ip), vehicle: saline
  T/C: 104 % of control

## ClC1=C(Cl)N(C2=NCCC2)CC1
dose: 6.25 mg/kg/injection, schedule: Q01DX009 (ip), vehicle: Klucel (hydroxypropylcellulose) (HPC)
  T/C: 96 % of control
dose: 12.5 mg/kg/injection, schedule: Q01DX009 (ip), vehicle: Klucel (hydroxypropylcellulose) (HPC)
  T/C: 99 % of control
dose: 25.0 mg/kg/injection, schedule: Q01DX009 (ip), vehicle: Klucel (hydroxypropylcellulose) (HPC)
  T/C: 99 % of control

## CCCCOC(=O)c1ccccc1OP(=O)(N(C)C)N(C)C
[8]
  T/C: 107 % of control
[9]
  T/C: 103 % of control

## Cc1ccc(NCCCC2CCCN3CCCCC23)c2c(=O)c3cc(O)ccc3sc12 (stereo not given)
dose: 25.0 mg/kg/injection, schedule: Q01DX001 (ip), vehicle: saline with Tween-80
  T/C: 99 % of control
dose: 50.0 mg/kg/injection, schedule: Q01DX001 (ip), vehicle: saline with Tween-80
  T/C: 98 % of control
dose: 100.0 mg/kg/injection, schedule: Q01DX001 (ip), vehicle: saline with Tween-80
  T/C: 100 % of control

## CCCCN1COCO[C@H]2CCC[C@@H]21
dose: 100.0 mg/kg/injection, schedule: Q04DX002 (ip), vehicle: Klucel (hydroxypropylcellulose) (HPC)
  T/C: 118 % of control
dose: 200.0 mg/kg/injection, schedule: Q04DX002 (ip), vehicle: Klucel (hydroxypropylcellulose) (HPC)
  T/C: 122 % of control

## Cc1ccc(C(=O)CCl)c(C)c1
dose: 12.5 mg/kg/injection, schedule: Q04DX003 (ip), vehicle: saline with Tween-80
  T/C: 110 % of control
dose: 25.0 mg/kg/injection, schedule: Q04DX003 (ip), vehicle: saline with Tween-80
  T/C: 105 % of control
dose: 50.0 mg/kg/injection, schedule: Q04DX003 (ip), vehicle: saline with Tween-80
  T/C: 110 % of control

## CCN(CC)CCOCCO
[1]
  T/C: 100 % of control
[2]
  T/C: 109 % of control
[3]
  T/C: 100 % of control

## Cc1ccc(N=Nc2c(O)n(-c3ccccc3C)c(=S)n(-c3ccc(Br)cc3)c2=O)cc1
[10]
  T/C: 100 % of control
[11]
  T/C: 101 % of control

## O=C(O)CNC(=O)/C=C/c1ccc(O)c(O)c1
dose: 50.0 mg/kg/injection, schedule: Q01DX005 (ip), vehicle: Klucel (hydroxypropylcellulose) (HPC)
  T/C: 114 % of control
dose: 100.0 mg/kg/injection, schedule: Q01DX005 (ip), vehicle: Klucel (hydroxypropylcellulose) (HPC)
  T/C: 100 % of control
dose: 200.0 mg/kg/injection, schedule: Q01DX005 (ip), vehicle: Klucel (hydroxypropylcellulose) (HPC)
  T/C: 100 % of control

## O=C(NO)C(O)C(O)C(O)C(O)CO (stereo not given)
dose: 12.5 mg/kg/injection, schedule: Q01DX009 (ip), vehicle: saline
  T/C: 93 % of control
dose: 25.0 mg/kg/injection, schedule: Q01DX009 (ip), vehicle: saline
  T/C: 91 % of control
[1]
  T/C: 98 % of control and 97 % of control
[3]
  T/C: 86 % of control

## CC1(C)OCC(C2OC3OC(C)(C)OC3C2NN)O1 (stereo not given)
[12]
  T/C: 95 % of control
[13]
  T/C: 98 % of control
dose: 200.0 mg/kg/injection, schedule: Q01DX005 (ip), vehicle: saline with Tween-80
  T/C: 100 % of control

## CC(C)OCCCN(Cn1c(=S)sc2ccccc21)Cn1c(=S)sc2ccccc21
[14]
  T/C: 91 % of control
[15]
  T/C: 89 % of control
[16]
  T/C: 87 % of control

## CN(C)c1ccc(C=Nc2ccc3ccc4cccc5ccc2c3c45)cc1
[14]
  T/C: 101 % of control
[15]
  T/C: 102 % of control
[16]
  T/C: 102 % of control

## COc1cc(CC(=O)O)c([N+](=O)[O-])cc1C
dose: 25.0 mg/kg/injection, schedule: Q01DX001 (ip), vehicle: Klucel (hydroxypropylcellulose) (HPC)
  T/C: 90 % of control
dose: 50.0 mg/kg/injection, schedule: Q01DX001 (ip), vehicle: Klucel (hydroxypropylcellulose) (HPC)
  T/C: 91 % of control
[7]
  T/C: 91 % of control

## COc1cc([C@H]2OC[C@H]3[C@@H]2CO[C@@H]3c2cc(OC)c3c(c2)OCO3)cc(OC)c1OC
dose: 9.75 mg/kg/injection, schedule: Q01DX009 (ip), vehicle: saline + Tween-80 + alcohol
  T/C: 93 % of control
dose: 19.5 mg/kg/injection, schedule: Q01DX009 (ip), vehicle: saline + Tween-80 + alcohol
  T/C: 106 % of control
dose: 39.0 mg/kg/injection, schedule: Q01DX009 (ip), vehicle: saline + Tween-80 + alcohol
  T/C: 99 % of control
dose: 78.0 mg/kg/injection, schedule: Q01DX009 (ip), vehicle: saline + Tween-80 + alcohol
  T/C: 107 % of control

## CSC(SC)(SC)c1cc(C)no1
dose: 60.0 mg/kg/injection, schedule: Q01DX005 (ip), vehicle: saline with Tween-80
  T/C: 111 % of control
dose: 120.0 mg/kg/injection, schedule: Q01DX005 (ip), vehicle: saline with Tween-80
  T/C: 102 % of control
dose: 240.0 mg/kg/injection, schedule: Q01DX005 (ip), vehicle: saline with Tween-80
  T/C: 104 % of control

## COC(=O)c1c([As](C)C)n[n]([Sn]([CH3])([CH3])[CH3])c1C(=O)OC
dose: 6.25 mg/kg/injection, schedule: Q04DX003 (ip), vehicle: saline
  T/C: 88 % of control
dose: 12.5 mg/kg/injection, schedule: Q04DX003 (ip), vehicle: saline
  T/C: 99 % of control

## COc1cc2c(cc1OC)C(Cc1cc(OC)c(OC)cc1[N+](=O)[O-])=[N+](C)CC2
dose: 25.0 mg/kg/injection, schedule: Q01DX009 (ip), vehicle: other
  T/C: 98 % of control
dose: 50.0 mg/kg/injection, schedule: Q01DX009 (ip), vehicle: other
  T/C: 96 % of control
dose: 100.0 mg/kg/injection, schedule: Q01DX009 (ip), vehicle: other
  T/C: 102 % of control

## COC(=O)C(Cl)c1ccc2c(c1)OCO2 (stereo not given)
dose: 25.0 mg/kg/injection, schedule: Q01DX009 (ip), vehicle: saline with Tween-80
  T/C: 100 % of control
[10]
  T/C: 90 % of control
[11]
  T/C: 95 % of control

## CCC[CH2][Sn]1([CH2]CCC)[S]CC[N]1S(=O)(=O)c1ccc(C)cc1
dose: 1.0 mg/kg/injection, schedule: Q01DX009 (ip), vehicle: gum acacia
  T/C: 114 % of control
dose: 1.5 mg/kg/injection, schedule: Q01DX009 (ip), vehicle: gum acacia
  T/C: 106 % of control
dose: 2.25 mg/kg/injection, schedule: Q01DX009 (ip), vehicle: gum acacia
  T/C: 120 % of control

## CCCCCC(=O)c1c(-c2ccc(C)cc2)cc(O)c(CCCC)c1-c1ccc(C)cc1
dose: 25.0 mg/kg/injection, schedule: Q01DX005 (ip), vehicle: saline with Tween-80
  T/C: 108 % of control
[12]
  T/C: 97 % of control
[13]
  T/C: 104 % of control

## O=C1c2ccccc2C(=O)C1(Br)C(Br)c1ccccc1 (stereo not given)
[15]
  T/C: 104 % of control
[4]
  T/C: 104 % of control
[5]
  T/C: 95 % of control
[6]
  T/C: 90 % of control
